ChEMBL document CHEMBL3621201, “Improving the Selectivity of Engineered Protease Inhibitors: Optimizing the P2 Prime Residue Using a Versatile Cyclic Peptide Library” (J Med Chem, 2015)
Activity calls are given as the source filed them. The rule behind the calls is not given here. Bridge positions count the residues as written; N and C are the ends. Square brackets hold non-standard residues; d marks the D form. Peptide text beside a SMILES is read from it. Bip = N[C@@H](Cc1ccc(-c2ccccc2)cc1)C(=O)O

What was measured:
[1] = molecular target: Coagulation factor IX (Homo sapiens) (UniProt P00740); assay: Inhibition of factor 9a-beta (unknown origin) at 25 uM using Ac-QGRpNA substrate by spectrophotometry method
Sequence of Coagulation factor IX (Homo sapiens) (P00740 47-191 limits assumed): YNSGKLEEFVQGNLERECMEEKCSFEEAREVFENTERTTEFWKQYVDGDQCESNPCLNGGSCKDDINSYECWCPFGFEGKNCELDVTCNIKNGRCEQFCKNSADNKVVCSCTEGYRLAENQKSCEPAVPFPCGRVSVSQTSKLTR
Sequence of Coagulation factor IX (Homo sapiens) (P00740 227-461 limits assumed): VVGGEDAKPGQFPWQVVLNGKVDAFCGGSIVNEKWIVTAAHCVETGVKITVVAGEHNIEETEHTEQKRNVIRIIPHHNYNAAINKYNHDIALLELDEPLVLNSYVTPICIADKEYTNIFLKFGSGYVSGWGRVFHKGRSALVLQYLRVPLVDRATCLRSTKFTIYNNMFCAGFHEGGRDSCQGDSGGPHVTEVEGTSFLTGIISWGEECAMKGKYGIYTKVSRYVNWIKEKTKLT

[2] = molecular target: Serine protease 1 (Homo sapiens) (UniProt P07477); assay: Inhibition of beta-trypsin (unknown origin) at 25 nM using Bz-FVRpNA substrate by spectrophotometry method
Sequence of Serine protease 1 (Homo sapiens) (P07477 whole entry): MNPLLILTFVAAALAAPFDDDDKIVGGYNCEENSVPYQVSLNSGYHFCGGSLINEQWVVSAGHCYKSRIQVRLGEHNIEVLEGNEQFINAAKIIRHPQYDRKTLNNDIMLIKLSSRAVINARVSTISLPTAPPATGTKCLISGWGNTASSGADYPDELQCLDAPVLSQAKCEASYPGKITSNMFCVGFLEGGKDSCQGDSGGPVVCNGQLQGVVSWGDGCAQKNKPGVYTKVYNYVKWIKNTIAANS

Kallikrein-4 = Kallikrein-4 (Homo sapiens, UniProt Q9Y5K2); assay: Inhibition of KLK4 (unknown origin) expressed in Sf9 cells at 25 nM using FVQRpNA substrate by spectrophotometry method
Sequence of Kallikrein-4 (Q9Y5K2 whole entry): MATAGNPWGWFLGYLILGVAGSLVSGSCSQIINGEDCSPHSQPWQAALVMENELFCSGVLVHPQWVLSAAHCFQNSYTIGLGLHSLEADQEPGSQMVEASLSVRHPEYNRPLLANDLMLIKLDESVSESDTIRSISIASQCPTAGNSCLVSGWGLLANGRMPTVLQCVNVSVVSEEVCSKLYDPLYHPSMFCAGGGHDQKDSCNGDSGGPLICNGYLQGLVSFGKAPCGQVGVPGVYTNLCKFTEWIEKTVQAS

Plasminogen = Plasminogen (Homo sapiens, UniProt P00747); assay: Inhibition of plasmin (unknown origin) at 50 uM using Ac-RM(O2)YRpNA substrate by spectrophotometry method
Sequence of Plasminogen (P00747 97-580 limits assumed): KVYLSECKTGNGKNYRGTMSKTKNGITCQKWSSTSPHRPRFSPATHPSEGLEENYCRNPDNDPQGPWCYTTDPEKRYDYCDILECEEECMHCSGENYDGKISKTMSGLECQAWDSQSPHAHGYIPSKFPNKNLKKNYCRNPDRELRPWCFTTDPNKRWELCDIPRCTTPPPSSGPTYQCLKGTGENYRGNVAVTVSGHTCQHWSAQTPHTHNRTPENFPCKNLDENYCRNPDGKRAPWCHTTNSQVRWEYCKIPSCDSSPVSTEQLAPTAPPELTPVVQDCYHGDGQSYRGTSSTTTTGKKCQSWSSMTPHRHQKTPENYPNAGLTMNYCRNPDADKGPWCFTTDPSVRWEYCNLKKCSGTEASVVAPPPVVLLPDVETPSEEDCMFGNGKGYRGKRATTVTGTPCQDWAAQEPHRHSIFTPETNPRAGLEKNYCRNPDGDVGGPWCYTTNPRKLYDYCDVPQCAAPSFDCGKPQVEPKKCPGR
Sequence of Plasminogen (P00747 581-810 limits assumed): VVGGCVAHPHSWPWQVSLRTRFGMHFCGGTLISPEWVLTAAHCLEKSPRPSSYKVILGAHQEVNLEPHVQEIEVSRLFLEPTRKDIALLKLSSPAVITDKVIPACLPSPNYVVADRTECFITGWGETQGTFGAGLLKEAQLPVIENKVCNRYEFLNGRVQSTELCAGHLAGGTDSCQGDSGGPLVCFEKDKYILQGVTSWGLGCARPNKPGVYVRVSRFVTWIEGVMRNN

[3] = molecular target: Kallikrein-5 (Homo sapiens) (UniProt Q9Y337); assay: Inhibition of KLK5 (unknown origin) expressed in Pichia pastoris X33 at 50 nM using Ac-YRSR-pNA by spectrophotometry method
Sequence of Kallikrein-5 (Homo sapiens) (Q9Y337 whole entry): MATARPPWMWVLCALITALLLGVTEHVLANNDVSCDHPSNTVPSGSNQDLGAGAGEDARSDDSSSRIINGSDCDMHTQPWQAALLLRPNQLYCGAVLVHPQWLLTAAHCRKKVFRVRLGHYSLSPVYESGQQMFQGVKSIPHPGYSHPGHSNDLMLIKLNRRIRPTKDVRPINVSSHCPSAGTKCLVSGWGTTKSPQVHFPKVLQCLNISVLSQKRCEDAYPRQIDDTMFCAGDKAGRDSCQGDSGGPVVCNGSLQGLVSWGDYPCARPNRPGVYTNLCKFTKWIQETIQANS

Kallikrein-7 = Kallikrein-7 (Homo sapiens, UniProt P49862); assay: Inhibition of KLK7 (unknown origin) expressed in Pichia pastoris X33 at 200 nM using KHLY-pNA substrate by spectrophotometry method
Sequence of Kallikrein-7 (P49862 30-253 limits assumed): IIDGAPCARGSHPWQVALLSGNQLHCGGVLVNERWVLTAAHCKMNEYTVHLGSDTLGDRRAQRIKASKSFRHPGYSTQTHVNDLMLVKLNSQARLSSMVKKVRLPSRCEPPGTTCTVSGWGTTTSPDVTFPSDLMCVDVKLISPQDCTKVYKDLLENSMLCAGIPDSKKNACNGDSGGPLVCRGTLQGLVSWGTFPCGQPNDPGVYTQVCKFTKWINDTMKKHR

[4] = molecular target: T1, Coagulation factor XII (Homo sapiens) (UniProt P00748); assay: Inhibition of factor 12a-alpha (unknown origin) at 10 uM using Ac-QRFRpNA substrate by spectrophotometry method
T1 sequence (whole entry): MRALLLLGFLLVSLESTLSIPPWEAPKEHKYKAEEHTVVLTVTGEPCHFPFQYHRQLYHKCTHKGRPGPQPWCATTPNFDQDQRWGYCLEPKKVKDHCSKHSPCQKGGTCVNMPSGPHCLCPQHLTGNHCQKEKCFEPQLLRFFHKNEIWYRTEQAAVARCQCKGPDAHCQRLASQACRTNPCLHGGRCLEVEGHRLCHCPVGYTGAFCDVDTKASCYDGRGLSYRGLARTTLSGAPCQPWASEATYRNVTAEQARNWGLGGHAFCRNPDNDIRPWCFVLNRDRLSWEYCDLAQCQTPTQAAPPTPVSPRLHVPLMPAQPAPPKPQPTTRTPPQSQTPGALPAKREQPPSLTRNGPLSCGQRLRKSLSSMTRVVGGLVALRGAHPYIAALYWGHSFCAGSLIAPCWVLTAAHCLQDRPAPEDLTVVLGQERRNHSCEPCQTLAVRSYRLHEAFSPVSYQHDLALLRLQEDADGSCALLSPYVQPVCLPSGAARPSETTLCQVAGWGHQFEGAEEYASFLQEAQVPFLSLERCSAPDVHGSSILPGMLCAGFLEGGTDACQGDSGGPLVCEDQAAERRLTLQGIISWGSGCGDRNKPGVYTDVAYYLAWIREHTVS

[5] = molecular target: T2, Suppressor of tumorigenicity 14 protein (Homo sapiens) (UniProt Q9Y5Y6); assay: Inhibition of matriptase (unknown origin) at 10 uM using Ac-RQFRpNA substrate by spectrophotometry method
T2 sequence (whole entry): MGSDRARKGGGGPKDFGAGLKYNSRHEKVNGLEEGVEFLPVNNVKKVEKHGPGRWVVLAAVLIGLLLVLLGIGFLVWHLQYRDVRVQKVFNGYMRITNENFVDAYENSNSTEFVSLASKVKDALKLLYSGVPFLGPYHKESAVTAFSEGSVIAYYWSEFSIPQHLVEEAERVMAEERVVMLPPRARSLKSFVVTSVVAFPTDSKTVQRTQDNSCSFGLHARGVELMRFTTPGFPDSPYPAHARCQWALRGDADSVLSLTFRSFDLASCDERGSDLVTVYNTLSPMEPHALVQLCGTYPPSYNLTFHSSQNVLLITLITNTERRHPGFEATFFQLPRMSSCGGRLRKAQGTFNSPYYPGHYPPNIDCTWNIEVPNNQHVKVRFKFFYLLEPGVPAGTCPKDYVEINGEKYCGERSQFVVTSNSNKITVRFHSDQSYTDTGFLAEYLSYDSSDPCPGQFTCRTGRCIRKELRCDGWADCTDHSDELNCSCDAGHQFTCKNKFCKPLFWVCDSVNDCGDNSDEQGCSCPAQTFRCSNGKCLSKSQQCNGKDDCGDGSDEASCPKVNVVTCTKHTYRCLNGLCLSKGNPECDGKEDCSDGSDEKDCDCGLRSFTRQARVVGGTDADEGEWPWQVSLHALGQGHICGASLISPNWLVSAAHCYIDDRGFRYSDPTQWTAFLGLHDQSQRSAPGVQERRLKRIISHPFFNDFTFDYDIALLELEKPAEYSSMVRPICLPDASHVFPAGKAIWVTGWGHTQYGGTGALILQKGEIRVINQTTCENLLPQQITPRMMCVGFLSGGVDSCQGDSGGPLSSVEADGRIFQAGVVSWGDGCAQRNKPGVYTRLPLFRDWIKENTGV

Homo sapiens = organism: Homo sapiens; assay: Inhibition of alpha chymotrypsin (unknown origin) at 25 uM using Ac-GRPY-pNA by spectrophotometry method
[6] = molecular target: Coagulation factor XI (Homo sapiens) (UniProt P03951); assay: Inhibition of factor 11a (unknown origin) at 10 uM using Bz-FVRpNA substrate by spectrophotometry method
Sequence of Coagulation factor XI (Homo sapiens) (P03951 19-387 limits assumed): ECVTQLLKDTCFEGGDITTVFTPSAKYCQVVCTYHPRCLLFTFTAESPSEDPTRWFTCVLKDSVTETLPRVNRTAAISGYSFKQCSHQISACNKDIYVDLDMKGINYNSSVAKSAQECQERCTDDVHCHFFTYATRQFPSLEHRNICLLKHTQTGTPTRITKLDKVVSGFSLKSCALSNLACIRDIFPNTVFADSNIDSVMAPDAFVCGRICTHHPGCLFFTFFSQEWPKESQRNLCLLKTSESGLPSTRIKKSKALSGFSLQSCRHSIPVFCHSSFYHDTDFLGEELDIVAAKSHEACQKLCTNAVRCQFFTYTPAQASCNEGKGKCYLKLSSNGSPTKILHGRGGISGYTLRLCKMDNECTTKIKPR
Sequence of Coagulation factor XI (Homo sapiens) (P03951 388-625 limits assumed): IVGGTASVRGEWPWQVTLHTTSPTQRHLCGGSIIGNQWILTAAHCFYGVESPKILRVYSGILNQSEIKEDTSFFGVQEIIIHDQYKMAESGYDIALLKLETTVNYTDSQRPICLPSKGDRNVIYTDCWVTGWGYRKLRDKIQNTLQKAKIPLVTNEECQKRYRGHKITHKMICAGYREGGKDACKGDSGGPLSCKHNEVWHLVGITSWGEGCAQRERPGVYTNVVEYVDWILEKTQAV

Prothrombin = Prothrombin (Homo sapiens, UniProt P00734); assay: Inhibition of alpha-thrombin (unknown origin) at 25 uM using Ac-ATPRpNA substrate by spectrophotometry method

Row | SMILES | inhibition [2] | inhibition (Kallikrein-4) | inhibition [3] | inhibition (Homo sapiens) | other results
1 | CC[C@H](C)[C@@H]1NC(=O)[C@@H]2CCCN2C(=O)[C@@H]2CCCN2C(=O)[C@H](CCC(=O)O)NC(=O)[C@H](CO)NC(=O)[C@H](CCCNC(=N)N)NC(=O)[C@H]([C@@H](C)O)NC(=O)[C@@H]2CSSC[C@H](NC1=O)C(=O)N[C@@H](CC(N)=O)C(=O)N1CCC[C@H]1C(=O)N[C@@H](CC(N)=O)C(=O)NCC(=O)N[C@@H]([C@@H](C)O)C(=O)N2 (cyclo(CNPNGTCTRSEPPI); disulfide 1-7) | inactive | inactive | – | – | inhibition [1]: 54%
2 | CC[C@H](C)[C@@H]1NC(=O)[C@@H]2CCCN2C(=O)[C@@H]2CCCN2C(=O)[C@H](CCCCN)NC(=O)[C@H](CO)NC(=O)[C@H](CCCNC(=N)N)NC(=O)[C@H]([C@@H](C)O)NC(=O)[C@@H]2CSSC[C@H](NC1=O)C(=O)N[C@@H](CC(N)=O)C(=O)N1CCC[C@H]1C(=O)N[C@@H](CC(N)=O)C(=O)NCC(=O)N[C@@H]([C@@H](C)O)C(=O)N2 (cyclo(CNPNGTCTRSKPPI); disulfide 1-7) | – | – | – | – | inhibition (Plasminogen): 60%; inhibition [1]: 43%
3 | CC[C@H](C)[C@@H]1NC(=O)[C@@H]2CCCN2C(=O)[C@@H]2CCCN2C(=O)CNC(=O)[C@H](CO)NC(=O)[C@H](CCCNC(=N)N)NC(=O)[C@H]([C@@H](C)O)NC(=O)[C@@H]2CSSC[C@H](NC1=O)C(=O)N[C@@H](CC(N)=O)C(=O)N1CCC[C@H]1C(=O)N[C@@H](CC(N)=O)C(=O)NCC(=O)N[C@@H]([C@@H](C)O)C(=O)N2 (cyclo(CNPNGTCTRSGPPI); disulfide 1-7) | inactive | – | – | – | –
4 | CC[C@H](C)[C@@H]1NC(=O)[C@@H]2CCCN2C(=O)[C@@H]2CCCN2C(=O)[C@H](Cc2cnc[nH]2)NC(=O)[C@H](CO)NC(=O)[C@H](CCCNC(=N)N)NC(=O)[C@H]([C@@H](C)O)NC(=O)[C@@H]2CSSC[C@H](NC1=O)C(=O)N[C@@H](CC(N)=O)C(=O)N1CCC[C@H]1C(=O)N[C@@H](CC(N)=O)C(=O)NCC(=O)N[C@@H]([C@@H](C)O)C(=O)N2 (cyclo(CNPNGTCTRSHPPI); disulfide 1-7) | – | – | inactive | – | inhibition (Kallikrein-7): Active
5 | CC[C@H](C)[C@@H]1NC(=O)[C@@H]2CCCN2C(=O)[C@@H]2CCCN2C(=O)[C@H](CO)NC(=O)[C@H](CO)NC(=O)[C@H](CCCNC(=N)N)NC(=O)[C@H]([C@@H](C)O)NC(=O)[C@@H]2CSSC[C@H](NC1=O)C(=O)N[C@@H](CC(N)=O)C(=O)N1CCC[C@H]1C(=O)N[C@@H](CC(N)=O)C(=O)NCC(=O)N[C@@H]([C@@H](C)O)C(=O)N2 (cyclo(CNPNGTCTRSSPPI); disulfide 1-7) | – | – | inactive | – | inhibition (Kallikrein-7): Active
6 | CC[C@H](C)[C@@H]1NC(=O)[C@@H]2CCCN2C(=O)[C@@H]2CCCN2C(=O)[C@H](Cc2ccc(-c3ccccc3)cc2)NC(=O)[C@H](CO)NC(=O)[C@H](CCCNC(=N)N)NC(=O)[C@H]([C@@H](C)O)NC(=O)[C@@H]2CSSC[C@H](NC1=O)C(=O)N[C@@H](CC(N)=O)C(=O)N1CCC[C@H]1C(=O)N[C@@H](CC(N)=O)C(=O)NCC(=O)N[C@@H]([C@@H](C)O)C(=O)N2 (cyclo([Bip]PPICNPNGTCTRS); disulfide 5-11) | – | Active | Active | – | inhibition [4]: 80%
7 | CC[C@H](C)[C@@H]1NC(=O)[C@@H]2CCCN2C(=O)[C@@H]2CCCN2C(=O)[C@H](C(C)C)NC(=O)[C@H](CO)NC(=O)[C@H](CCCNC(=N)N)NC(=O)[C@H]([C@@H](C)O)NC(=O)[C@@H]2CSSC[C@H](NC1=O)C(=O)N[C@@H](CC(N)=O)C(=O)N1CCC[C@H]1C(=O)N[C@@H](CC(N)=O)C(=O)NCC(=O)N[C@@H]([C@@H](C)O)C(=O)N2 (cyclo(CNPNGTCTRSVPPI); disulfide 1-7) | 75% | 92% | – | 76% | inhibition [5]: 54%; inhibition (Plasminogen): 25%; inhibition [4]: 80%; inhibition [6]: 65%
8 | CC[C@H](C)[C@@H]1NC(=O)[C@@H]2CCCN2C(=O)[C@@H]2CCCN2C(=O)[C@@H]2CCCN2C(=O)[C@H](CO)NC(=O)[C@H](CCCNC(=N)N)NC(=O)[C@H]([C@@H](C)O)NC(=O)[C@@H]2CSSC[C@H](NC1=O)C(=O)N[C@@H](CC(N)=O)C(=O)N1CCC[C@H]1C(=O)N[C@@H](CC(N)=O)C(=O)NCC(=O)N[C@@H]([C@@H](C)O)C(=O)N2 (cyclo(CNPNGTCTRSPPPI); disulfide 1-7) | inactive | – | – | – | –
9 | CC[C@H](C)[C@@H]1NC(=O)[C@@H]2CCCN2C(=O)[C@@H]2CCCN2C(=O)[C@H](CCCNC(=N)N)NC(=O)[C@H](CO)NC(=O)[C@H](CCCNC(=N)N)NC(=O)[C@H]([C@@H](C)O)NC(=O)[C@@H]2CSSC[C@H](NC1=O)C(=O)N[C@@H](CC(N)=O)C(=O)N1CCC[C@H]1C(=O)N[C@@H](CC(N)=O)C(=O)NCC(=O)N[C@@H]([C@@H](C)O)C(=O)N2 (cyclo(CNPNGTCTRSRPPI); disulfide 1-7) | 65% | Active | – | 57% | inhibition (Plasminogen): 23%; inhibition [1]: 43%
10 | CC[C@H](C)[C@@H]1NC(=O)[C@@H]2CCCN2C(=O)[C@@H]2CCCN2C(=O)[C@H](CC(C)C)NC(=O)[C@H](CO)NC(=O)[C@H](CCCNC(=N)N)NC(=O)[C@H]([C@@H](C)O)NC(=O)[C@@H]2CSSC[C@H](NC1=O)C(=O)N[C@@H](CC(N)=O)C(=O)N1CCC[C@H]1C(=O)N[C@@H](CC(N)=O)C(=O)NCC(=O)N[C@@H]([C@@H](C)O)C(=O)N2 (cyclo(CNPNGTCTRSLPPI); disulfide 1-7) | 52% | – | – | – | –
11 | CC[C@H](C)[C@@H]1NC(=O)[C@@H]2CCCN2C(=O)[C@@H]2CCCN2C(=O)[C@H](Cc2ccccc2)NC(=O)[C@H](CO)NC(=O)[C@H](CCCNC(=N)N)NC(=O)[C@H]([C@@H](C)O)NC(=O)[C@@H]2CSSC[C@H](NC1=O)C(=O)N[C@@H](CC(N)=O)C(=O)N1CCC[C@H]1C(=O)N[C@@H](CC(N)=O)C(=O)NCC(=O)N[C@@H]([C@@H](C)O)C(=O)N2 (cyclo(CNPNGTCTRSFPPI); disulfide 1-7) | – | Active | Active | 52% | inhibition (Prothrombin): 41%
12 | CC[C@H](C)[C@@H]1NC(=O)[C@@H]2CCCN2C(=O)[C@@H]2CCCN2C(=O)[C@H](CCC(N)=O)NC(=O)[C@H](CO)NC(=O)[C@H](CCCNC(=N)N)NC(=O)[C@H]([C@@H](C)O)NC(=O)[C@@H]2CSSC[C@H](NC1=O)C(=O)N[C@@H](CC(N)=O)C(=O)N1CCC[C@H]1C(=O)N[C@@H](CC(N)=O)C(=O)NCC(=O)N[C@@H]([C@@H](C)O)C(=O)N2 (cyclo(CNPNGTCTRSQPPI); disulfide 1-7) | – | – | inactive | – | inhibition (Kallikrein-7): Active
13 | CC[C@H](C)[C@@H]1NC(=O)[C@@H]2CCCN2C(=O)[C@@H]2CCCN2C(=O)[C@H](Cc2c[nH]c3ccccc23)NC(=O)[C@H](CO)NC(=O)[C@H](CCCNC(=N)N)NC(=O)[C@H]([C@@H](C)O)NC(=O)[C@@H]2CSSC[C@H](NC1=O)C(=O)N[C@@H](CC(N)=O)C(=O)N1CCC[C@H]1C(=O)N[C@@H](CC(N)=O)C(=O)NCC(=O)N[C@@H]([C@@H](C)O)C(=O)N2 (cyclo(CNPNGTCTRSWPPI); disulfide 1-7) | – | – | Active | 63% | inhibition [4]: 87%
